# From US8586505B2 (SDS Biotech K. K., priority 2009, dated 2013)
# Key:
# Type in all cases: in vivo
# [1] = system: Pseudoperonospora cubensis; experiment: Test of examining control effect on Pseudoperonospora cubensis (potted cucumber plants); details: 96 h, 10% wettable powder adjusted to 125 ppm, 15 ml/pot sprayed on potted cucumber plants one day before spray inoculation, assessed after 1 day wet chamber and 3 days greenhouse, read-out: Determination of control effect (preventive value) on Pseudoperonospora cubensis
# Protocol: (§1) Calculation of Preventive Value: Preventive value={(untreated lesion area rate−treated lesion area rate)/untreated lesion area rate}×100
# (§2) Using the thus calculated preventive value, the control effect of each compound was determined in accordance with the following standards.
# (§3) High control effect: 100%≧preventive value≧60%
# (§4) Low control effect: 60%>preventive value≧0%
# Using a spray gun, an agent solution prepared by adjusting a 10% wettable powder of each sample compound to 125 ppm (hereinafter referred to as a “sample agent solution”) was sprayed to potted cucumber plants (variety: Sagamihanjiro, 2.5 leave stage) in a concentration of 15 ml/pot. One day after the spraying, a conidial suspension of Pseudoperonospora cubensis (conidial concentration: 1.0×10^4 cells/ml) was applied to the plants by spray inoculation. After completion of the inoculation, the plants were left at 21° C. under wet chamber conditions for 1 day, and were then left in a greenhouse for 3 days, so that they were fully infected with the aforementioned disease. Thereafter, the disease level on each leaf was compared with that on an untreated leaf, and the control effect of each compound was determined in the same manner as in Example 3(1).
# [2] = system: Sphaerotheca fuliginea; experiment: Test of examining control effect on Sphaerotheca fuliginea (potted cucumber plants); details: Podosphaera fuliginea, 336 h; 10% wettable powder adjusted to 125 ppm, 15 ml/pot sprayed on potted cucumber plants one day before spray inoculation; assessed after 14 days in greenhouse; read-out: Determination of control effect (preventive value) on Sphaerotheca fuliginea
# Protocol: as §1, §2, §3, §4
# Using a spray gun, an agent solution prepared by adjusting a 10% wettable powder of each sample compound to 125 ppm (hereinafter referred to as a “sample agent solution”) was sprayed to potted cucumber plants (variety: Sagamihanjiro, 2nd leave stage) in a concentration of 15 ml/pot. One day after the spraying, a conidial suspension of Sphaerotheca fuliginea (conidial concentration: 1.0×10^5 cells/ml) was applied to the plants by spray inoculation. The plants were left in a greenhouse for 14 days, so that they were fully infected with the aforementioned disease. Thereafter, the disease level on each leaf was compared with that on an untreated leaf, and the control effect of each compound was determined in the same manner as in Example 3(1).
# [3] = system: Phytophthora infestans; experiment: whole plant or invertebrate; details: in Solanum lycopersicum, 96 h, read-out: Determination of control effect (preventive value)
Compound,pest or weed control at 125 µg/mL [1] [%],pest or weed control at 125 µg/mL [2] [%],pest or weed control at 125 ppm [3] [%]
COc1ccccc1Oc1nc(C#CCCNc2ncnc3ccccc23)cs1 [compound 215],60 to 100,60 to 100,60 to 100
CCOC(=O)C(CC#Cc1ccccc1C(F)(F)F)Nc1ncnc2ccccc12 (stereo not drawn) [compound 304],60 to 100,60 to 100,0 to 60
Cc1cc(Cl)ccc1C#CCC(C)Nc1ncnc2sccc12 (stereo not drawn) [compound 250],60 to 100,60 to 100,60 to 100
COCc1cccc(C#CCCNc2ncnc3ccccc23)c1 [compound 135],60 to 100,0 to 60,0 to 60
FC(F)(F)c1ccc(C#CCCNc2ncnc3sccc23)cc1 [compound 27],60 to 100,60 to 100,0 to 60
FC(F)OCc1ccccc1C#CCCNc1ncnc2ccccc12 [compound 134],60 to 100,60 to 100,60 to 100
COCc1ccccc1C#CCCNc1ncnc(Cl)c1Br [compound 366],60 to 100,60 to 100,60 to 100
CC(CC#Cc1ccc(F)cc1)Nc1ncnc2ccccc12 (stereo not drawn) [compound 271],60 to 100,60 to 100,60 to 100
FC(F)(F)c1cc(Cl)ccc1C#CCCNc1ncnc2ccccc12 [compound 178],60 to 100,60 to 100,60 to 100
COCc1ccccc1C#CCCNc1ncnc2cc(F)c(F)cc12 [compound 319],60 to 100,60 to 100,60 to 100
Cc1cccc(C#CCCNc2ncnc3ccccc23)n1 [compound 200],60 to 100,60 to 100,60 to 100
Cc1ncnc(NC(C)CC#Cc2ccc(Cl)cc2C(F)(F)F)c1I (stereo not drawn) [compound 386],60 to 100,60 to 100,0 to 60
CC(CC#Cc1ccccc1C(F)(F)F)Nc1ncnc2ccccc12 (stereo not drawn) [compound 274],60 to 100,60 to 100,60 to 100
Fc1ccc(C(F)(F)F)c(C#CCCNc2ncnc3ccccc23)c1 [compound 168],60 to 100,60 to 100,60 to 100
CC(CC#Cc1c(Cl)cccc1Cl)Nc1ncnc2sccc12 (stereo not drawn) [compound 251],60 to 100,60 to 100,0 to 60
C(#Cc1cccs1)CCNc1ncnc2ccccc12 [compound 204],60 to 100,60 to 100,60 to 100
CC(CC#Cc1ccc(Cl)cc1C(F)(F)F)Nc1ncnc(C(F)(F)F)c1Cl (stereo not drawn) [compound 388],60 to 100,60 to 100,0 to 60
COCc1cccc(F)c1C#CCCNc1ncnc2ccccc12 [compound 141],60 to 100,60 to 100,60 to 100
CC(CC#Cc1ccc(F)cc1CO)Nc1ncnc2sccc12 (stereo not drawn) [compound 244],60 to 100,60 to 100,60 to 100
C(#Cc1cncc2ccccc12)CCNc1ncnc2ccccc12 [compound 192],60 to 100,0 to 60,0 to 60
C(#Cc1ccc2ccccc2n1)CCNc1ncnc2ccccc12 [compound 188],60 to 100,0 to 60,0 to 60
COCc1ccccc1C#CCCNc1ncnc(C)c1Cl [compound 362],60 to 100,60 to 100,60 to 100
